# According to patent publication US9723834B2, “Composition containing a pyripyropene insecticide and a base” (BASF SE, priority 2010, dated 2017):
# Key:
# [1] = Storage stability of emulsion concentrates at 65° C. (chemical assay before and after storage); format: physicochemical; details: emulsion concentrate with addition of Stabilizer A, storage at 65° C. up to 2 weeks
# Method: The present invention further relates to a use of the base for increasing the stability of the pesticide of formulae I or II. The stability of the pesticide may be analyzed storage for 14 days at 65° C. An increase of the stability of the pesticide may be identified by analyzing the chemical recovery after said storage.
# Finally, all samples of the emulsion concentrates were stored at 65° C. up to 2 weeks, and chemical assay was determined before and after storage. The chemical stability results as well as initial formulation pH (measured at 1% formulation dilution in water at room temperature) were listed in Table 1.
# Tenebrio molitor L = details: WO 2004/060065; cited from earlier work
# [2] = tested on: larvae of Helicoverpa zea; details: Applied and Environmental Microbiology (1995), 61(12), 4429-35; cited from earlier work
# [3] = tested on: Plutella xylostella L larvae; details: WO 2004/060065; cited from earlier work
SMILES,chemical stability of Insecticide A [1],insecticidal activity against Tenebrio molitor L (Tenebrio molitor L),insecticidal activity against larvae of Helicoverpa zea [2],insecticidal activity against Plutella xylostella L larvae [3]
C[C@]1(COC(=O)C2CC2)[C@@H]2C[C@H](O)[C@@]3(C)Oc4cc(-c5cccnc5)oc(=O)c4[C@H](O)[C@@H]3[C@@]2(C)CC[C@@H]1OC(=O)C1CC1 [Insecticide A],dramatically improved,–,–,–
"CC(=O)OC[C@@]1(C)[C@@H]2C[C@H](OC(C)=O)[C@@]3(C)Oc4cc(-c5cccnc5)oc(=O)c4[C@H](O)[C@@H]3[C@@]2(C)CC[C@@H]1OC(C)=O [Insecticide B, Pyripyropene A]",–,has insecticidal activity,has insecticidal activity,has insecticidal activity
